# Results published in US20160206583A1, “AMINO ACID TREATMENT OF SEIZURES” (THE JOHNS HOPKINS UNIVERSITY, priority 2013, published 2016).
# Key:
# [1] = tested on: kainic acid-induced seizures; experiment: Kainic acid status epilepticus test; assay type: in vivo, mice
# Method: Male NIH Swiss mice (NCI, Frederick, Md., U.S.A.) aged 3-4 weeks were acclimatized to the animal care facility for 1-5 days and housed four per cage. All mice were fed unrestricted normal rodent chow (Teklad Global 2018SX, Madison, Wis., U.S.A.). Only in experiments lasting 2 weeks, mice were fasted overnight before the D-leucine was administered in drinking water.
# […] Louis, Mo., U.S.A.) or given D-leucine in drinking water (1.5% w/v) for 13 days after an initial overnight fast. […] Louis, Mo., U.S.A.).
# Each mouse was tested for seizures only once. Personnel performing seizure testing and assessments were blinded to treatment group assignments. Seizure tests were performed 3 h following a single dose of D-leucine, 15-25 min after the administration of kainic acid, or after 13 days of D-leucine exposure in drinking water.
# Kainic acid was injected intraperitoneally (22.5-25 mg kainic acid/kg mouse body mass, 5.3 mg/ml PBS, Tocris Bioscience, Ellisville, Mo., U.S.A.) as described previously (Hartman et al., 2012). Mice were observed continuously in plexiglass cages for the duration of the experiment. Seizure behaviors were scored for 2 h using a modified Racine scale (the highest score in a given 5-min block was used): 0, no seizure; 1, immobility; 2, forelimb and/or tail extension; 3, automatisms; 4, forelimb clonus, rearing, and/or falling; 5, repetition of stage 4; 6, tonic-clonic seizures; and 7, death (Hartman et al., 2010). As the mouse behaviors only occur intermittently, the highest seizure score achieved in a 5 min epoch was recorded.
# Probit analyses (used in the 6 Hz test to determine the current where half the mice experienced any seizure behavior, or CC50, was performed using Minitab 16 (State College, Pa., U.S.A.). The level of significance in the 6 Hz test was 0.05. T-tests and one-way ANOVAs were performed using GraphPad Prism 4 (LaJolla, Calif., U.S.A.). In the kainic acid test, one-way ANOVAs were performed for multiple comparisons of 3 treatment groups. When 2 groups were compared in the kainic acid test, the level of significance was 0.01 (because 3-4 parameters were measured simultaneously, this represents a Bonferroni correction of a typical level of significance of 0.05).
# 6 Hz-induced seizures = experiment: 6 Hz test; assay type: in vivo, mice; conditions: D-leucine 1.5% w/v in drinking water for 13 days
# Method: Male NIH Swiss mice (NCI, Frederick, Md., U.S.A.) aged 3-4 weeks were acclimatized to the animal care facility for 1-5 days and housed four per cage. All mice were fed unrestricted normal rodent chow (Teklad Global 2018SX, Madison, Wis., U.S.A.). Only in experiments lasting 2 weeks, mice were fasted overnight before the D-leucine was administered in drinking water. At 5 weeks of age, mice were injected intraperitoneally with D-leucine 3 mg/kg (“low dose”) or 300 mg/kg (“high dose”) body weight (Sigma-Aldrich, St. Louis, Mo., U.S.A.) or given D-leucine in drinking water (1.5% w/v) for 13 days after an initial overnight fast. […] Probit analyses (used in the 6 Hz test to determine the current where half the mice experienced any seizure behavior, or CC50, was performed using Minitab 16 (State College, Pa., U.S.A.). The level of significance in the 6 Hz test was 0.05. T-tests and one-way ANOVAs were performed using GraphPad Prism 4 (LaJolla, Calif., U.S.A.). In the kainic acid test, one-way ANOVAs were performed for multiple comparisons of 3 treatment groups. When 2 groups were compared in the kainic acid test, the level of significance was 0.01 (because 3-4 parameters were measured simultaneously, this represents a Bonferroni correction of a typical level of significance of 0.05).
# AMPA receptor = conditions: hippocampal neurons; Gong et al., 2007; cited from earlier work
# [2] = tested on: GAERS (Genetic Absence Epilepsy Rats from Strasbourg) Wistar rats; conditions: intracerebroventricular or intrathalamic routes; Koerner et al., 1996; cited from earlier work
# amygdala-kindled rats = conditions: dose-dependent, Loscher et al., 1994; cited from earlier work
# [3] = tested on: maximal electroshock-induced seizures; conditions: literature (Peterson, 1991; Kalinichev et al., 2010); cited from earlier work
# [4] = tested on: pentylenetetrazol-induced seizures; conditions: Dufour et al., 1999, cited from earlier work
# [5] = tested on: hexafluorodiethyl ether seizures; conditions: Gallagher, 1969; cited from earlier work
# [6] = tested on: picrotoxin-induced seizures; conditions: rats; Skeie et al., 1994; cited from earlier work
# [7] = CBIO 10 mg/kg 15 min after kainic acid
# [8] = pretreatment, CBIO 10 mg/kg three hours prior to kainic acid
# [9] = D-leucine 300 mg/kg 15 min after kainic acid (after seizure onset)
# [10] = pretreatment, D-leucine 3 mg/kg i.p. 3 h before kainic acid (23.5 mg/kg)
# [11] = pretreatment, D-leucine 300 mg/kg i.p. 3 h before kainic acid (23.5 mg/kg)
# [12] = D-serine 3 mg/kg 15 min after kainic acid
# [13] = D-serine 300 mg/kg 15 min after kainic acid
structure (smiles),measurement,setting,value
"Oc1noc2ccc(Cl)cc12 [CBIO, 5-chloro-benzo[d]isoxazol-3-ol]",maximum seizure score,[1]; [7],no effect
same,mean seizure score,[1]; [7],decrease
same,number of epochs with a seizure stage ≧2,[1]; [7],decrease
same,latency to seizure stage ≧2,[1]; [8],no effect
same,maximum seizure score,[1]; [8],no effect
same,mean seizure score,[1]; [8],decreased
same,number of epochs with a seizure stage ≧2,[1]; [8],decreased
CC(C)C[C@@H](N)C(=O)O [D-leucine],CC50 (current where half of mice had a convulsion),6 Hz-induced seizures,increased
same,protection against seizures induced by kainic acid,[1]; D-leucine 3 mg/kg 15 min after the onset of seizures (FIGS. 4C-4D),protects against seizures
same,seizure outcome compared with diazepam (10 mg/kg),[1]; D-leucine 3 mg/kg 20 min after kainic acid (25 mg/kg),not inferior to treatment with diazepam
same,mean seizure score,[1]; [9],no effect
same,number of epochs with a seizure score ≧2,[1]; [9],decreased
same,maximum seizure score,"[1]; D-leucine 300 mg/kg 15 min after kainic acid (after seizure onset), trend noted",no effect
same,protection against seizures,"[1]; pretreatment, D-leucine 0.3 mg/kg 3 h before kainic acid (23.5 mg/kg)",did not protect against seizures
same,mean seizure score,[1]; [10],decreased
same,number of epochs with a seizure stage ≧2,[1]; [10],decreased
same,maximum seizure score,"[1]; pretreatment, D-leucine 0.3, 3 or 300 mg/kg vs water, 3 h before kainic acid",no difference between groups
same,latency to onset of seizure stage ≧2,[1]; [11],prolonged
same,mean seizure score,[1]; [11],decreased
same,number of epochs with a seizure stage ≧2,[1]; [11],decreased
same,kainic acid-induced AMPA receptor-mediated current,AMPA receptor,inactive
N[C@H](CO)C(=O)O [D-serine],effect on spike wave discharges,[2],no effect
same,maximum seizure score,[1]; [12],decrease
same,mean seizure score,[1]; [12],decrease
same,number of epochs with a seizure stage ≧2,[1]; [12],decrease
same,maximum seizure score,[1]; [13],no effect
same,mean seizure score,[1]; [13],decrease
same,number of epochs with a seizure stage ≧2,[1]; [13],decrease
same,after discharge thresholds,amygdala-kindled rats,increases
same,kainic acid-induced AMPA receptor-mediated current,AMPA receptor,inhibits
same,protection against maximal electroshock-induced seizures,[3],weak but statistically significant protection
CC(C)C[C@H](N)C(=O)O [L-leucine],protection against pentylenetetrazol-induced seizures,[4]; rats,protects
same,protection against hexafluorodiethyl ether seizures,[5],not
same,protection against picrotoxin-induced seizures,[6],protects
CC(C)CC(=O)C(=O)O [α-ketoisocaproic acid],activity in the PTZ test,[4],not active
